“And” between values parts separate entries of the source, which are not always exact repeats. Identical values can stand only once.
Assay: mn = molality of the nth substance listed, in mol/kg
Conditions: 293 K, 100 kPa, Liquid, Alternating current cell with electrodes

CCCC(=O)O.OCCNCCO [diethanolamine butyrate] + O
Conditions | electrical conductivity [S/m]
m1 = 0.01798 | 0.077
m1 = 0.01805 | 0.09
m1 = 0.03516 | 0.166
m1 = 0.03577 | 0.142
m1 = 0.05397 | 0.257
m1 = 0.05531 | 0.207
m1 = 0.0709 | 0.318
m1 = 0.07433 | 0.284
m1 = 0.09407 | 0.346
m1 = 0.09424 | 0.389
m1 = 0.1085 | 0.453
m1 = 0.1122 | 0.403
m1 = 0.1275 | 0.519
m1 = 0.1316 | 0.486
m1 = 0.1455 | 0.581
m1 = 0.1496 | 0.538
m1 = 0.1638 | 0.641
m1 = 0.1683 | 0.577
m1 = 0.1807 | 0.696
m1 = 0.186 | 0.597
m1 = 0.1982 | 0.75
m1 = 0.2035 | 0.651
m1 = 0.2144 | 0.801
m1 = 0.2203 | 0.694
m1 = 0.231 | 0.87
m1 = 0.237 | 0.725
m1 = 0.2464 | 0.912
m1 = 0.2525 | 0.764
m1 = 0.2616 | 0.954
m1 = 0.2679 | 0.782
m1 = 0.2758 | 0.994
m1 = 0.2824 | 0.821
m1 = 0.2899 | 1.03
m1 = 0.297 | 0.862
m1 = 0.3032 | 1.06
m1 = 0.3106 | 0.908
m1 = 0.3162 | 1.1
m1 = 0.324 | 0.95
m1 = 0.3283 | 1.13
m1 = 0.3321 | 0.98
m1 = 0.3402 | 1.16
m1 = 0.3438 | 1
m1 = 0.3514 | 1.19
m1 = 0.3555 | 1.02
m1 = 0.3623 | 1.22
m1 = 0.3665 | 1.05
m1 = 0.3726 | 1.24
m1 = 0.3774 | 1.05
m1 = 0.3826 | 1.27
m1 = 0.3875 | 1.07
m1 = 0.3917 | 1.29
m1 = 0.3975 | 1.1
m1 = 0.4022 | 1.32
m1 = 0.4068 | 1.12
m1 = 0.4115 | 1.35
m1 = 0.416 | 1.14
m1 = 0.4201 | 1.38
m1 = 0.4245 | 1.16
m1 = 0.4284 | 1.4
m1 = 0.433 | 1.18
m1 = 0.4368 | 1.43
m1 = 0.4446 | 1.45

CC(=O)[O-].C[NH2+]CCO [N-methyl-2-hydroxyethylammonium acetate] + O
Conditions | electrical conductivity
m1 = 0.01579 | 0.077 S/m
m1 = 0.01797 | 0.09 S/m
m1 = 0.03269 | 0.14 S/m
m1 = 0.03539 | 0.162 S/m
m1 = 0.05165 | 0.21 S/m
m1 = 0.05369 | 0.236 S/m
m1 = 0.06943 | 0.29 S/m
m1 = 0.07132 | 0.318 S/m
m1 = 0.08822 | 0.356 S/m
m1 = 0.09023 | 0.385 S/m
m1 = 0.1063 | 0.507 S/m
m1 = 0.1084 | 0.453 S/m
m1 = 0.1255 | 0.561 S/m
m1 = 0.1264 | 0.551 S/m
m1 = 0.1433 | 0.607 S/m
m1 = 0.1458 | 0.612 S/m
m1 = 0.162 | 0.66 S/m
m1 = 0.1641 | 0.665 S/m
m1 = 0.1793 | 0.705 S/m
m1 = 0.1809 | 0.713 S/m
m1 = 0.1972 | 0.75 S/m
m1 = 0.1983 | 0.762 S/m
m1 = 0.2133 | 0.804 S/m
m1 = 0.2134 | 0.787 S/m
m1 = 0.2303 | 0.833 S/m
m1 = 0.2308 | 0.838 S/m
m1 = 0.2458 | 0.87 S/m
m1 = 0.246 | 0.877 S/m
m1 = 0.2615 | 0.899 S/m
m1 = 0.2616 | 0.861 S/m
m1 = 0.276 | 0.893 S/m
m1 = 0.2762 | 0.942 S/m
m1 = 0.2904 | 0.926 S/m
m1 = 0.2909 | 0.968 S/m
m1 = 0.3042 | 0.957 S/m
m1 = 0.3044 | 0.998 S/m
m1 = 0.3175 | 1.01 S/m
m1 = 0.3178 | 1.03 S/m
m1 = 0.3298 | 1.04 S/m
m1 = 0.3302 | 1.04 S/m
m1 = 0.3422 | 1.07 S/m
m1 = 0.3425 | 1.08 S/m
m1 = 0.354 | 1.11 S/m
m1 = 0.3542 | 1.1 S/m
m1 = 0.3654 | 1.13 S/m and 1.12 S/m
m1 = 0.376 | 1.16 S/m
m1 = 0.3765 | 1.15 S/m
m1 = 0.3868 | 1.17 S/m
m1 = 0.3967 | 1.19 S/m
m1 = 0.4065 | 1.21 S/m
m1 = 0.4155 | 1.24 S/m
m1 = 0.4245 | 1.27 S/m

CCCC(=O)[O-].[NH3+]CCO [2-hydroxy ethylammonium butanoate] + O
Conditions | electrical conductivity [S/m]
m1 = 0.01855 | 0.092
m1 = 0.0207 | 0.107
m1 = 0.03507 | 0.163
m1 = 0.0415 | 0.196
m1 = 0.05678 | 0.264
m1 = 0.06247 | 0.295
m1 = 0.07651 | 0.338
m1 = 0.08283 | 0.372
m1 = 0.09713 | 0.41
m1 = 0.1049 | 0.449
m1 = 0.119 | 0.485
m1 = 0.1258 | 0.511
m1 = 0.1407 | 0.563
m1 = 0.1476 | 0.585
m1 = 0.1628 | 0.637
m1 = 0.1681 | 0.649
m1 = 0.184 | 0.709
m1 = 0.1888 | 0.711
m1 = 0.2055 | 0.77
m1 = 0.2087 | 0.764
m1 = 0.2251 | 0.834
m1 = 0.2284 | 0.81
m1 = 0.2448 | 0.894
m1 = 0.2469 | 0.857
m1 = 0.2626 | 0.946
m1 = 0.2654 | 0.9
m1 = 0.2809 | 0.994
m1 = 0.2825 | 0.94
m1 = 0.298 | 1.04
m1 = 0.3001 | 0.982
m1 = 0.3153 | 1.09
m1 = 0.3165 | 1.02
m1 = 0.331 | 1.12
m1 = 0.3327 | 1.06
m1 = 0.3468 | 1.17
m1 = 0.3475 | 1.09
m1 = 0.3613 | 1.2
m1 = 0.3622 | 1.12
m1 = 0.3758 | 1.15
m1 = 0.3759 | 1.23
m1 = 0.3892 | 1.27
m1 = 0.3894 | 1.18
m1 = 0.4021 | 1.2
m1 = 0.4023 | 1.3
m1 = 0.4144 | 1.23
m1 = 0.4145 | 1.32
m1 = 0.4231 | 1.34
m1 = 0.4259 | 1.25
m1 = 0.4344 | 1.36
m1 = 0.4374 | 1.27
m1 = 0.4449 | 1.39
m1 = 0.448 | 1.29
m1 = 0.4554 | 1.41
m1 = 0.4584 | 1.32
m1 = 0.4651 | 1.43
m1 = 0.4681 | 1.33
m1 = 0.4746 | 1.45
m1 = 0.4775 | 1.35
m1 = 0.4835 | 1.46
m1 = 0.4864 | 1.38
m1 = 0.4922 | 1.48
m1 = 0.495 | 1.4
m1 = 0.5005 | 1.5
m1 = 0.5032 | 1.41
m1 = 0.5085 | 1.52
m1 = 0.516 | 1.54
m1 = 0.5231 | 1.55

CC(=O)[O-].[NH3+]CCO [2-hydroxyethylammonium acetate] + O
Conditions | electrical conductivity [S/m]
m1 = 0.02015 | 0.13
m1 = 0.0241 | 0.138
m1 = 0.03983 | 0.262
m1 = 0.04796 | 0.274
m1 = 0.05774 | 0.359
m1 = 0.07416 | 0.45
m1 = 0.07452 | 0.4
m1 = 0.09015 | 0.539
m1 = 0.09982 | 0.512
m1 = 0.1057 | 0.618
m1 = 0.1213 | 0.702
m1 = 0.1267 | 0.628
m1 = 0.1356 | 0.775
m1 = 0.1485 | 0.835
m1 = 0.1519 | 0.737
m1 = 0.1621 | 0.9
m1 = 0.1743 | 0.958
m1 = 0.1778 | 0.847
m1 = 0.1867 | 1.02
m1 = 0.2004 | 1.08
m1 = 0.2025 | 0.95
m1 = 0.2157 | 1.14
m1 = 0.2285 | 1.06
m1 = 0.2326 | 1.21
m1 = 0.2502 | 1.29
m1 = 0.2521 | 1.16
m1 = 0.2691 | 1.37
m1 = 0.2755 | 1.23
m1 = 0.2868 | 1.44
m1 = 0.2977 | 1.33
m1 = 0.3032 | 1.44
m1 = 0.3189 | 1.48
m1 = 0.3199 | 1.42
m1 = 0.3337 | 1.56
m1 = 0.3404 | 1.49
m1 = 0.3476 | 1.61
m1 = 0.3609 | 1.61
m1 = 0.3615 | 1.57
m1 = 0.3811 | 1.64
m1 = 0.3855 | 1.75
m1 = 0.4003 | 1.72
m1 = 0.4075 | 1.86
m1 = 0.4184 | 1.77
m1 = 0.4279 | 1.93
m1 = 0.4359 | 1.83
m1 = 0.4463 | 1.98
m1 = 0.4526 | 1.87
m1 = 0.4627 | 2.03
m1 = 0.4642 | 1.9
m1 = 0.4774 | 2.08
m1 = 0.4797 | 1.94
m1 = 0.4943 | 1.99
m1 = 0.5085 | 2.04
m1 = 0.5221 | 2.09
m1 = 0.5351 | 2.13
m1 = 0.5473 | 2.17
m1 = 0.5594 | 2.23
m1 = 0.5705 | 2.27
